Source: patent publication US20030104090A1, “Supplements containing annatto extracts and carotenoids and methods for using the same” (priority 2000, published 2003)
Where two headings read alike, the source gives them in different places.

Experiments:
[1] = tested on: lipoxidase; conditions: cited from earlier work; for antioxidant activity and lipoxidase inhibition: in vitro, isolated cell or enzyme systems
[2] = cited from earlier work
[3] = mice and rats on high dietary doses; cited from earlier work
[4] = mice, 66 mg norbixin per kilogram body weight; cited from earlier work
[5] = rats, cited from earlier work
[6] = Serum levels of bixin and norbixin in human volunteers on bixin supplementation (Example 1); assay type: in vivo; conditions: human test group, 20 milligrams bixin daily as two 10 mg capsules, during supplementation
Excerpt: (§1) Two groups of human volunteers (3 individuals in the test group and 5 in the control group) were exposed to high oxidative stress conditions by breathing contaminated air of a high ozone level and a high concentration of smoke over a period of four to five days for one half hour per day. Both groups were given the same diets. Namely, they consumed their normal daily diets but avoided foods rich in carotenoids, particularly foods containing annatto (as a colorant), from two weeks before the exposure until two weeks after the exposure.
During the period of bixin supplementation, the serum level of bixin and norbixin was zero in the control group, while the serum levels of bixin and norbixin in the individuals of the test group reached levels of 12 and 60 micrograms/liter, respectively.

[7] = tested on: DNA; conditions: cells exposed to radiation, metal ions and peroxides, cisplatin; cited from earlier work
[8] = target: aldose reductase (Homo sapiens, UniProt P15121); conditions: found in annatto leaf extract; cited from earlier work
[9] = 100 milligrams per day for 35 days; cited from earlier work
[10] = dietary, pregnant rats; cited from earlier work
[11] = tested on: hippocampal neuronal cells; conditions: by suppressing activation of c-Src kinase; cited from earlier work
[12] = tested on: tumor cells; conditions: e.g. human leukemia U937; cited from earlier work
[13] = tested on: esterification of retinol; conditions: cited from earlier work
[14] = tested on: PPARgamma and PPARalpha; conditions: 3T3-L1 adipocytes and HepG2 hepatocytes, in vitro; cited from earlier work
[15] = tested on: caspase-3; conditions: HL-60 cells; cited from earlier work
[16] = tested on: NIH3T3 cells; conditions: in combination with lovastatin, without the cytotoxicity of lovastatin alone; cited from earlier work
[17] = rats, oral administration, gamma-radiation; cited from earlier work
[18] = tested on: formation of cancer cells; conditions: carcinogenesis with methylcholantrene; cited from earlier work
[19] = tested on: xenobiotic enzymes; conditions: rat, dietary supplementation; cited from earlier work
[20] = Acceptable daily intake (JECFA, 1982); set-up: species or system human; conditions: worked out from 0.065 mg/day/kg
Excerpt: Bixin and its hydrolyzed form, norbixin, are used as coloring agents for human consumption, mainly in cheese (see Collins, “The role of annatto in food colouring,” Food Ingredients and Processing International, 23-27 (February 1992)). For some coloring applications, methylbixin has been commercially prepared by esterification of the […] of the bixin molecule (Zechmelster, et al., “A stereochernical study of methylbixin,” J. Am. Chem. Soc., 66:322330 (1944); Jondiko, et al., “Terpenoids and an apocarotenoid from seeds of B. orellana,” Phytochemistry, 28:3159-3162 (1989)). As a natural color additive to foods, particularly cheeses, bixin is typically added at concentrations of about 1 to 25 mg bixin per kg of food, although higher quantities may be used for some cheeses. Estimates of average daily intake of bixin compounds (usually bixin and norbixin) are of the order of 0.3 to 3 mg per day per person, although some studies report higher values, through the consumption of products such as cheeses, cake decoration, breakfast cereals, ice cream, snacks, margarine, and other foods in which bixin extract is added during food manufacture to provide color. The maximum ADI (acceptable daily intake) established by the Joint FAO/WHO Committee on Food Additives (JECFA, 1982) is 0.065 mg/day/kg body weight, expressed as bixin. […]

[21] = tested on: Connexin-43; conditions: cited from earlier work
[22] = tested on: WAZ-2T(-SA) mammary tumor cell line; assay: Dietary bixin in mammary tumor development (Example 2); assay type: in vivo, BALB/c mice; conditions: for final tumor weight: 50 days after inoculation, control 1.1 grams; for tumor latency (days post inoculation when tumors first palpable): control 30 days
Method: (§2) Female BALB/c mice and the WAZ-2T(-SA) mammary tumor cell line were used to determine the efficacy of dietary bixin in inhibiting mammary tumor development. Six mice per treatment were fed a semi synthetic AlN-93M diet containing 0, 0.006 or 0.06% bixin. After 14 days, all mice were inoculated with 2500 tumor cells (a cell load which typically produces a 65% tumor incidence in untreated controls). Tumor growth was measured daily for 50 days, at which time blood, liver, spleen, and tumors were removed and evaluated. […] Final tumor weight was 0.3 grams at 0.06% dietary bixin, 0.7 grams at 0.006% and 1.1 grams for the control without dietary bixin. Tumor latency (number of days post inoculation when mammary tumors were first palpable) was 45 days at 0.06% dietary bixin level, 38 days at 0.006%, and 30 days for the control. Results were determined to be statistically significant at the P<0.05 level. […] It may thus be concluded that the dietary bixin protected the mice from mammary tumor development by triggering genes of immune related systems rather than by an antioxidant action at the cellular level.

[23] = after human ingestion; cited from earlier work
[24] = tested on: PIM-1, p-53, BAX, and BCL-2; assay: mRNA expression in isolated splenocytes cultured with concanavalin-A (Example 2); assay type: cell-based, BALB/c mice; conditions: splenocytes of mice fed dietary bixin
Method: as §2

[25] = JECFA 1982, expressed as bixin; cited from earlier work
[26] = tested on: C3H- 1 O-T 1-2 cells; conditions: same level as lutein and canthaxanthin, surpassed only by alpha-tocopherol; cited from earlier work
[27] = tested on: thiobarbituric acid-reactive substances; assay: Oxidative stress load in the blood, modified TBAR test and free radical content (Example 1); assay type: in vivo, human; conditions: humans exposed to high ozone and smoke, 20 mg bixin daily
Excerpt: as §1

COC(=O)/C=C/C(C)=C/C=C/C(C)=C/C=C/C=C(C)/C=C/C=C(C)/C=C/C(=O)OC [methylbixin]
antioxidant activity and lipoxidase inhibition [1]: strong antioxidant activity and lipoxidase inhibition

vitamin E
urinary albumin excretion rate ([2]; humans with type 2 diabetes): significantly reduced
plasma levels of C-reactive molecules ([2]; patients with diabetes): decreased

CC(/C=C/C=C(C)/C=C/C(=O)O)=C\C=C\C=C(C)\C=C\C=C(C)\C=C\C(=O)O (stereo in doubt) [norbixin]
DNA breakage in liver and kidney [3]: no detectable DNA breakage
hypoglycemia induced [4]: up to 22%
hyperglycemia induced ([5]; 8.5 mg dietary norbixin/kg body weight): 27%
hyperglycemia induced ([5]; 74 mg/kg): 53%
serum level of norbixin [6]: 60 micrograms/liter
DNA protection in vitro [7]: protects DNA

isoscutellarein
aldose reductase inhibition [8]: aldose reductase inhibitor

tocotrienol
reduction of total cholesterol levels [9]: 20%
bioavailability to maternal and fetal brains [10]: bioavailable
protection from glutamate-induced death [11]: protects

CC(C)=CCC/C(C)=C/CC/C(C)=C/CC/C(C)=C/CO [geranylgeraniol]
induction of apoptosis [12]: very potent inducer of apoptosis
esterification of retinol into inactive retinyl esters [13]: inhibits esterification
lipid metabolic target genes [14]: upregulates
activation of caspase-3 [15]: selective activation
aberrant (oncogenic) signaling between cells [16]: selectively inhibits

COC(=O)/C=C/C(C)=C\C=C\C(C)=C\C=C\C=C(C)\C=C\C=C(C)\C=C\C(=O)O [bixin]
level of lipid peroxides in serum and liver [17]: significantly reduced
prevention of formation of cancer cells [18]: did not prevent
lipoxydase inhibition, modulation of lipid hydroperoxide formation ([1]; Canfield et al.): lipoxydase inhibitor
antioxidant activity and lipoxidase inhibition [1]: strong antioxidant activity and lipoxidase inhibition
effect on xenobiotic enzymes of lung and kidney [19]: induction effect
maximum ADI for average human weight of 60 kg [20]: 3.9 mg per day
Connexin-43 gene expression [21]: does not up-regulate
final tumor weight ([22]; 0.006% dietary bixin): 0.7 grams
tumor latency (days post inoculation when tumors first palpable) ([22]; 0.006% dietary bixin): 38 days
final tumor weight ([22]; 0.06% dietary bixin): 0.3 grams
mammary tumor incidence and tumor growth rate ([22]; 0.06% dietary bixin, versus 0.006% and control): lowest
tumor latency (days post inoculation when tumors first palpable) ([22]; 0.06% dietary bixin): 45 days
serum level of bixin [6]: 12 micrograms/liter
absorption into the blood stream [23]: readily absorbed
mRNA expression levels of PIM-1, p-53, BAX, and BCL-2 [24]: dose dependent effects
DNA protection in vitro [7]: protects DNA
maximum ADI (acceptable daily intake) [25]: 0.065 mg/day/kg body weight
inhibition of lipid peroxidation [26]: potent inhibitor
oxidative stress level of the blood (modified TBAR test) ([27]; control group high): remained normal
free radical content of the blood ([27]; same relation as TBAR (control high, test normal)): same relation was found
